Laboratory results published in patent US20220071933A1, “COMBINATION REMEDY” (SYMRISE AG, priority 2019, published 2022).

What was measured:
[1] = system: HGT-1 parietal cell model; experiment: Proton secretion assay (intracellular proton index, IPX) in the HGT-1 parietal cell model; assay type: cell-based; conditions: for IPX [induced by 50 mM AA] D: D stereoisomer; for IPX [induced by 50 mM AA] D / IPX [induced by 50 mM AA] L: 50 mM amino acid, HGT-1 cells, IPX based on log 2 data of intracellular proton concentration, lower IPX = more protons secreted; for IPX [induced by 50 mM AA] L: L stereoisomer; for acid modulating effect (indicator of satiety): among the amino acids listed in Table 1
Text: The value of intracellular proton secretion (IPX) in the parietal cell model HGT-1 (proton secretion assay), which is a marker for gastric secretion, indicates the extent to which the amino acid is able to inhibit proton secretion and is thus indirectly a measure of saturation. The intracellular proton index (IPX) is based on log 2 data of intracellular proton concentration. The lower the IPX, the more protons are secreted. A low IPX is interpreted as stimulation of gastric acid, which in turn is a saturation signal.

[2] = system: neurons; conditions: concentration range 0.01 μM to 10 μM (0.003 mg/kg to 3 mg/kg); cited from earlier work
[3] = sensory; cited from earlier work
[4] = system: dopamine release; conditions: about 0.03 mg/kg (equivalent to 0.1 μM); cited from earlier work

| SMILES | IPX [induced by 50 mM AA] D [1] | IPX [induced by 50 mM AA] L [1] | further results |
| --- | --- | --- | --- |
| CC(N)C(=O)O (stereo not drawn) [ALA] | −0.35 ± 0.08 | 0.87 ± 0.10 |  |
| N=C(N)NCCC[C@H](N)C(=O)O [ARG, arginine] | −2.37 ± 0.05 | −2.71 ± 0.11 |  |
| N=C(N)NCCC[C@@H](N)C(=O)O [D-arginine] |  |  | acid modulating effect (indicator of satiety) [1]: best acid modulating effect |
| CCC(C)C(N)C(=O)O (stereo not drawn) [ILE] | −0.40 ± 0.04 | 0.58 ± 0.07 |  |
| N=C(N)NCCC[C@H](N)C(=O)O [L-arginine] |  |  | acid modulating effect (indicator of satiety) [1]: best acid modulating effect |
| CC(C)CC(N)C(=O)O (stereo not drawn) [LEU] | 1.10 ± 0.13 | 1.38 ± 0.14 |  |
| CCCCCCCCC(=O)NCc1ccc(O)c(OC)c1 [N-nonanoylvanillylamine, N-((4-hydroxy-3-methoxyphenyl-)methyl-)nonanamide] |  |  | stimulation of serotonin release in neurons against the respective control [2]: up to 270%; detection threshold [3]: 0.107 mg/kg; irritation threshold [3]: 0.054 mg/kg; stimulation of dopamine release after acetylcholine stimulation against the respective control [4]: up to 700% |
| NC(Cc1ccccc1)C(=O)O (stereo not drawn) [PHE] | 1.58 ± 0.10 | 0.50 ± 0.05 |  |
| O=C(O)C1CCCN1 (stereo not drawn) [PRO] | 0.63 ± 0.09 | 0.44 ± 0.08 |  |
| NC(CO)C(=O)O (stereo not drawn) [SER] | 0.87 ± 0.10 | 1.40 ± 0.12 |  |
| CC(O)C(N)C(=O)O (stereo not drawn) [THR] | 1.57 ± 0.05 | 1.43 ± 0.10 |  |
| NC(Cc1c[nH]c2ccccc12)C(=O)O (stereo not drawn) [TRP] | −0.04 ± 0.04 | −0.66 ± 0.23 |  |
| CC(C)C(N)C(=O)O (stereo not drawn) [VAL] | −0.44 ± 0.17 | 0.99 ± 0.05 |  |
| CCCCC/C=C/C=C/C(=O)NCC(C)C [pellitorin, Pellitorin] |  |  | detection threshold [3]: 0.1 mg/kg |
